# Values of other authors as cited in patent publication US9623047B2, “Composition and method for improving gastrointestinal health of equine” (Photo Finish Supplements, LLC, priority 2012, dated 2017).
# Legend:
# [1] = tested on: tooth pulp and periapical tissue; settings: protective barrier in dental repair and treatment
smiles,measurement,setting,value
"[Ca+2].[OH-].[OH-] [Ca(OH)2, calcium hydroxide]",DNA synthesis of tooth pulp cells,tooth pulp cells,increase
same,anti-microbial action,[1],powerful anti-microbial action
same,effect on regrowth of damaged tissue,[1],significant stimulatory effect
